Values belong to the substance of their own block, whether it stands above or below them.
Columns and labels:
[1] = Half-lives of peptides in murine intestinal fluid (intestinal enzyme solution); conditions: relates to undiluted murine intestinal fluid, 90 min incubation in dilutions, 37° C.
Experimental: Anesthetized female Balb/c mice were sacrificed by cervical dislocation and their abdominal wall was opened. The small bowel was clamped with a hemostat behind the stomach outlet (proximal end) and severed from the stomach. The small bowel was exposed and clamped with a second hemostat near the posterior (distal) end. The bowel was severed a second time behind this point.
The subsequent preparation steps to obtain the digestive secretions were performed on an ice-cooled surface. The small bowel closed on both sides was agitated in ice-cold simulated intestinal fluid (SIF; 8 mM phosphate, pH 7.2, with 4.6 mM K^+, 111.3 mM Na^+, 101.5 mM Cl) according to Lockwood and Randall (1949), which was intended to imitate as accurately as possible the physiological conditions of the small bowel in terms of ion concentrations, in order to remove external contaminants and keep it moist. To obtain the digestive secretions present in the small bowel, the distal end of the bowel was suspended in a reaction vessel and the hemostat attached on this side was removed. A lateral cut was then made at the proximal end of the bowel so that a syringe provided with a button cannula could be introduced into the bowel which was held without tension. The bowel contents were washed out in three steps. The washing solutions were successively injected slowly into the bowel and collected at the lower end of the bowel separately in three reaction vessels. Firstly, the bowel was rinsed with a volume of 6 ml of perfluorohexane, an inert liquid which is immiscible with water, and the perfluorohexane was driven out with 4 ml of air. Then a mixture of 2.25 ml of perfluorohexane and 0.25 ml of SIF which contained the nonphysiological ions Li^+ and Cs^+, was used for washing in order to be able subsequently to determine the dilution by spectroscopic methods. […] In a third washing step, 5 ml of SIF without tracer were injected. Solid constituents of the bowel contents and the perfluorohexane were separated by centrifugation from the aqueous phase, in which the digestive enzymes were present. An inductively coupled plasma mass spectrometry (ICP-MS) was used to determine the concentrations of Li^+ and Cs^+ in the intestinal enzyme solution, and the dilution factor was calculated taking the volume of the washing buffer into account. The dilution of the third lavage was ascertained via endogenous markers of intestinal secretion (e.g. enzymic activities, immunoglobulins), in comparison with the first two intestinal enzyme solutions. The enzyme solutions were stored after freezing with liquid nitrogen at −70° C.
On a polypropylene microtiter plate having the same format as the coated polystyrene microtiter plate (see example 4), 7.5 μl of peptide solution were introduced into the first well of a row, and 5 μl of the peptide solution were introduced into each of the next 10 wells. The last well remained empty and was intended to serve as background correction. Then, simulated intestinal fluid (SIF) with the addition of 0.005% Tween 20 and 1 mM CaCl (SIFT-CaCl) was put in all the wells. The well with 7.5 μl of peptide solution received 60 μl of SIFT-CaCl, and the wells with 5 μl of peptide solution each received 45 μl of SIFT-CaCl. The empty well for the background correction received 50 μl of SIFT-CaCl. The enzymatic reaction was then started by adding 7.5 μl of a dilution of an intestinal enzyme solution (obtained as in example 2) to the well with 7.5 μl of peptide solution and 60 μl of SIFT-CaCl. 25 μl of this mixture were immediately pipetted into the next well and mixed, and this step was repeated to result in a serial 1:3 dilution of the intestinal enzyme solution over a total of 10 wells. No enzyme solution was put into the last peptide-containing well. Each well thus contained a volume of 50 μl after the serial dilution.

[2] = target: chymotrypsin; test: Inhibition of enzymatic conversion of GVPFGP by chymotrypsin; format: biochemical; conditions: degradation of GVPFGP by chymotrypsin; geometric mean and standard deviation of a quadruplicate measurement; read-out: inhibition constant
Experimental: (§1) Inhibition constants were measured by carrying out two parallel enzyme dilutions in each case. One enzyme dilution was carried out in the presence, and the other enzyme dilution in the absence, of the protease inhibitor aprotinin. […] The peptide chosen for the trypsin enzyme had the amino acid sequence GPARLA (number 42 from example 1) and the peptide chosen for the chymotrypsin enzyme had the sequence GVPFGP (number 43 from example 1). […] Then, to carry out the proteolytic cleavage in the presence of an inhibitor, 7.5 μl of an aprotinin solution (1 μg/ml for trypsin and 1 mg/ml for chymotrypsin) were put into the first well, and 5 μl of the aprotinin solution (1 μg/ml for trypsin and 1 mg/ml for chymotrypsin) were put into each of the next 10 wells. […] No enzyme solution was put in the last peptide-containing well.
(§2) The inhibition constant of aprotinin can be calculated by comparing the catalytic efficiency (kcat/KM) in the presence and in the absence of aprotinin. kcat/KM values are calculated according to equation (6) and the relationship obtained (equation (17)):
(§3) (kcat/KM)0/(kcat/KM)=1+[I]total/Ki

[3] = target: trypsin; test: Inhibition of enzymatic conversion of GPARLA by trypsin; format: biochemical; conditions: degradation of substrate GPARLA by trypsin; geometric mean and standard deviation of a quadruplicate measurement; read-out: inhibition constant
Experimental: as §1, §2, §3

[4] = tested on: trypsin; conditions: cleaved with trypsin; FRET-based methods (Grahn et al., 1998); cited from earlier work

Substance: FGDSIEAQCGTSVNVH
t1/2 ([1]; 16-mer peptides): 1.3951 s

Substance: PGFGDSIEAQCGTSVN
t1/2 ([1]; 16-mer peptides): 5.0348 s

Substance: GSAEAGVDAA
t1/2 ([1]; 10-mer peptides): 3.1271 s

Substance: VVGSAEAGVD
t1/2 ([1]; 10-mer peptides): 4.0618 s

Ki [2]: 480 nM | Ki [3]: 1 nM
Substance: aprotinin

Substance: FDKLPGFGDSIEAQCG
t1/2 ([1]; 16-mer peptides): 5.6930 s

Substance: GPARLAIG [GPARLAIG variant of the trypsin substrate, measured with FRET-based methods (Grahn et al., 1998)]
catalytic efficiency [4]: 1.2e+06 M⁻¹ s⁻¹

Substance: KLPGFGDSIEAQCGTS
t1/2 ([1]; 16-mer peptides): 6.4211 s

Reference: patent publication US20090258381A1, “Methods for Determining the Cleavability of Substrates” (priority 2005, published 2009)
